Assay results reported in ChEMBL document CHEMBL4732135, “Structural and mechanistic insights into the inhibition of amyloid-β aggregation by Aβ fragment derived synthetic peptides” (Eur J Med Chem, 2021).
The source made the active and inactive calls. The calls are words filed in the database; no cut-off is given here. Square brackets hold non-standard residues; d marks the D form. Peptide text beside a SMILES is read from it. ξ: configuration not given here. Oic(3aξ,7aξ) = O=C(O)[C@@H]1CC2CCCCC2N1; Phe(4-F) = N[C@@H](Cc1ccc(F)cc1)C(=O)O

Legend:
PC-12 [1] = experiment: Neuroprotective activity against amyloid beta 42-induced toxicity in rat PC-12 cells assessed as cell viability at 1 uM measured after 6 hrs by MTT assay (reference value: 73.8%); assay type: functional; conditions: read-out: Activity
[2] = molecular target: Amyloid-beta precursor protein (Homo sapiens) (UniProt P05067); experiment: Inhibition of amyloid beta (1 to 42) (unknown origin) aggregation at 2 uM measured after 24 hrs in presence of giant unilamellar vesicles by ANS dye based fluorescence assay
[3] = molecular target: Amyloid-beta precursor protein (Homo sapiens) (UniProt P05067); experiment: Inhibition of amyloid beta (1 to 42) (unknown origin) assessed as reduction in peptide aggregation at 0.1 uM measured after 24 hrs by thioflavin-T fluorescence assay relative to control
PC-12 [4] = experiment: Neuroprotective activity against amyloid beta 42-induced toxicity in rat PC-12 cells assessed as cell viability at 4 uM measured after 6 hrs by MTT assay (reference value: 74.05%); assay type: functional; conditions: read-out: Activity
[5] = Stability of compound in serum (unknown origin) assessed as peptide cleavage at 5 uM measured after 24 hrs by MS analysis; assay type: ADME, cell-free
PC-12 [6] = experiment: Neuroprotective activity against amyloid beta 42-induced toxicity in rat PC-12 cells assessed as cell viability at 0.5 uM measured after 6 hrs by MTT assay (reference value: 73.8%); assay type: functional; conditions: read-out: Activity
[7] = molecular target: Amyloid-beta precursor protein (Homo sapiens) (UniProt P05067); experiment: Disaggregation of preformed amyloid beta (1 to 42) (unknown origin) aggregation at 2 uM measured after 24 hrs by ANS dye based fluorescence assay
[8] = molecular target: Amyloid-beta precursor protein (Homo sapiens) (UniProt P05067); experiment: Binding affinity to amyloid beta (1 to 42) (unknown origin) assessed as absence of fibrillar assembly at 10 uM measured after 24 hrs by HR-TEM analysis
[9] = molecular target: Amyloid-beta precursor protein (Homo sapiens) (UniProt P05067); experiment: Inhibition of amyloid beta (1 to 42) (unknown origin) aggregation assessed as protein with beta sheet conformation at 10 uM measured after 24 hrs by circular dichroism analysis (reference value: 66.4%); parameters: scale not given: the % may be the effect or the level left
PC-12 [10] = experiment: Neuroprotective activity against amyloid beta 42-induced toxicity in rat PC-12 cells assessed as cell viability at 0.1 uM measured after 6 hrs by MTT assay (reference value: 73.8%); assay type: functional; conditions: read-out: Activity
[11] = molecular target: Amyloid-beta precursor protein (Homo sapiens) (UniProt P05067); experiment: Inhibition of amyloid beta (1 to 42) (unknown origin) aggregation at 2 uM measured after 24 hrs by ANS dye based fluorescence assay
[12] = molecular target: Amyloid-beta precursor protein (Homo sapiens) (UniProt P05067); experiment: Inhibition of amyloid beta (1 to 42) (unknown origin) aggregation assessed as relative fluorescence unit at 4 uM measured after 24 hrs by thioflavin-T fluorescence assay (reference value: 100%)
[13] = molecular target: Amyloid-beta precursor protein (Homo sapiens) (UniProt P05067); experiment: Disaggregation of preformed amyloid beta (1 to 42) (unknown origin) aggregation at 2 uM by thioflavin-T fluorescence assay; conditions: time 24-120 hrs, TDE = time-dependent effect
[14] = molecular target: Amyloid-beta precursor protein (Homo sapiens) (UniProt P05067); experiment: Inhibition of amyloid beta (1 to 42) (unknown origin) aggregation assessed as relative fluorescence unit at 2 uM measured after 24 hrs by thioflavin-T fluorescence assay (reference value: 100%)
[15] = molecular target: Amyloid-beta precursor protein (Homo sapiens) (UniProt P05067); experiment: Inhibition of amyloid beta (1 to 42) (unknown origin) assessed as reduction in peptide aggregation at 0.5 uM measured after 24 hrs by thioflavin-T fluorescence assay relative to control
[16] = molecular target: Amyloid-beta precursor protein (Homo sapiens) (UniProt P05067); experiment: Inhibition of amyloid beta (1 to 42) (unknown origin) assessed as reduction in peptide aggregation at 2 uM measured after 24 hrs by thioflavin-T fluorescence assay relative to control
[17] = molecular target: Amyloid-beta precursor protein (Homo sapiens) (UniProt P05067); experiment: Binding affinity to amyloid beta (1 to 42) (unknown origin) assessed as absence of fibrillar assembly at 10 uM measured after 24 hrs by STEM analysis
[18] = molecular target: Amyloid-beta precursor protein (Homo sapiens) (UniProt P05067); experiment: Inhibition of amyloid beta (1 to 42) (unknown origin) assessed as reduction in peptide aggregation at 0.5 to 2 uM measured at 24 hrs interval for […] by thioflavin-T fluorescence assay; conditions: dose 0.5-2 µM
PC-12 [19] = experiment: Neuroprotective activity against amyloid beta 42-induced toxicity in rat PC-12 cells assessed as cell viability at 10 uM measured after 6 hrs by MTT assay (reference value: 74.05%); assay type: functional; conditions: read-out: Activity
[20] = molecular target: Amyloid-beta precursor protein (Homo sapiens) (UniProt P05067); experiment: Inhibition of amyloid beta (1 to 42) (unknown origin) aggregation assessed as relative fluorescence unit at 10 uM measured after 24 hrs by thioflavin-T fluorescence assay (reference value: 100%)
[21] = Effective permeability of compound in pH 8 PBS buffer by PAMPA-BBB assay; assay type: ADME
[22] = molecular target: Amyloid-beta precursor protein (Homo sapiens) (UniProt P05067); experiment: Inhibition of amyloid beta (1 to 42) (unknown origin) assessed as reduction in peptide aggregation at 10 uM measured after 24 hrs by thioflavin-T fluorescence assay relative to control
Cortical neurone [23] = experiment: Neuroprotective activity against amyloid beta 42-induced toxicity in rat primary cortical neurons at 0.1 uM; assay type: functional, cell-based
Cortical neurone [24] = experiment: Cytotoxicity against rat primary cortical neuron assessed as reduction in cell viability at 20 uM measured after 6 hrs by MTT assay; assay type: cell-based
PC-12 [25] = experiment: Cytotoxicity against rat PC-12 cells assessed as reduction in cell viability at 20 uM measured after 6 hrs by MTT assay; assay type: cell-based; conditions: pc-12, 6 h
[26] = molecular target: Amyloid-beta precursor protein (Homo sapiens) (UniProt P05067); experiment: Inhibition of amyloid beta (1 to 42) (unknown origin) aggregation measured after 24 hrs by tyrosine fluorescence assay
[27] = molecular target: Amyloid-beta precursor protein (Homo sapiens) (UniProt P05067); experiment: Inhibition of amyloid beta (1 to 42) (unknown origin) aggregation assessed as protein with random coil conformation at 10 uM measured after 24 hrs by circular dichroism analysis (reference value: 5%); parameters: scale not given: the % may be the effect or the level left
[28] = molecular target: Amyloid-beta precursor protein (Homo sapiens) (UniProt P05067); experiment: Binding affinity to amyloid beta (1 to 42) (unknown origin) assessed as amyloid beta (27 to 42)-adduct formation at 10 uM measured after 24 hrs by ESI-HRMS analysis
[29] = molecular target: Amyloid-beta precursor protein (Homo sapiens) (UniProt P05067); experiment: Inhibition of amyloid beta (1 to 42) (unknown origin) assessed as reduction in peptide aggregation at 1 uM measured after 24 hrs by thioflavin-T fluorescence assay relative to control
[30] = molecular target: Amyloid-beta precursor protein (Homo sapiens) (UniProt P05067); experiment: Inhibition of amyloid beta (1 to 42) (unknown origin) assessed as reduction in peptide aggregation at 4 uM measured after 24 hrs by thioflavin-T fluorescence assay relative to control
[31] = Stability of compound in serum (unknown origin) at 5 uM measured up to 12 hrs by HPLC analysis; assay type: ADME, cell-free; conditions: read-out: Stabilty
[32] = molecular target: Amyloid-beta precursor protein (Homo sapiens) (UniProt P05067); experiment: Binding affinity to amyloid beta (1 to 42) (unknown origin) at 10 uM measured after 24 hrs by ESI-HRMS analysis
PC-12 [33] = experiment: Neuroprotective activity against amyloid beta 42-induced toxicity in rat PC-12 cells assessed as cell viability at 2 uM measured after 6 hrs by MTT assay (reference value: 74.05%); assay type: functional; conditions: read-out: Activity
[34] = molecular target: Amyloid-beta precursor protein (Homo sapiens) (UniProt P05067); experiment: Disaggregation of preformed amyloid beta (1 to 42) (unknown origin) aggregation at 1 uM measured at 24 hrs interval for 120 hrs by thioflavin-T fluorescence assay relative to control
[35] = molecular target: Amyloid-beta precursor protein (Homo sapiens) (UniProt P05067); experiment: Disaggregation of preformed amyloid beta (1 to 42) (unknown origin) aggregation at 2 uM measured at 24 hrs interval for 120 hrs by thioflavin-T fluorescence assay relative to control
[36] = molecular target: Amyloid-beta precursor protein (Homo sapiens) (UniProt P05067); experiment: Binding affinity to amyloid beta (1 to 42) (unknown origin) assessed as amyloid beta (25 to 42)-adduct formation at 10 uM measured after 24 hrs by ESI-HRMS analysis
[37] = molecular target: Amyloid-beta precursor protein (Homo sapiens) (UniProt P05067); experiment: Binding affinity to amyloid beta (1 to 42) (unknown origin) assessed as amyloid beta (2 to 42)-adduct formation at 10 uM measured after 24 hrs by ESI-HRMS analysis
[38] = molecular target: Amyloid-beta precursor protein (Homo sapiens) (UniProt P05067); experiment: Disaggregation of preformed amyloid beta (1 to 42) (unknown origin) aggregation at 0.5 uM measured at 24 hrs interval for 120 hrs by thioflavin-T fluorescence assay relative to control

Sequence of Amyloid-beta precursor protein (Homo sapiens) (P05067 whole entry): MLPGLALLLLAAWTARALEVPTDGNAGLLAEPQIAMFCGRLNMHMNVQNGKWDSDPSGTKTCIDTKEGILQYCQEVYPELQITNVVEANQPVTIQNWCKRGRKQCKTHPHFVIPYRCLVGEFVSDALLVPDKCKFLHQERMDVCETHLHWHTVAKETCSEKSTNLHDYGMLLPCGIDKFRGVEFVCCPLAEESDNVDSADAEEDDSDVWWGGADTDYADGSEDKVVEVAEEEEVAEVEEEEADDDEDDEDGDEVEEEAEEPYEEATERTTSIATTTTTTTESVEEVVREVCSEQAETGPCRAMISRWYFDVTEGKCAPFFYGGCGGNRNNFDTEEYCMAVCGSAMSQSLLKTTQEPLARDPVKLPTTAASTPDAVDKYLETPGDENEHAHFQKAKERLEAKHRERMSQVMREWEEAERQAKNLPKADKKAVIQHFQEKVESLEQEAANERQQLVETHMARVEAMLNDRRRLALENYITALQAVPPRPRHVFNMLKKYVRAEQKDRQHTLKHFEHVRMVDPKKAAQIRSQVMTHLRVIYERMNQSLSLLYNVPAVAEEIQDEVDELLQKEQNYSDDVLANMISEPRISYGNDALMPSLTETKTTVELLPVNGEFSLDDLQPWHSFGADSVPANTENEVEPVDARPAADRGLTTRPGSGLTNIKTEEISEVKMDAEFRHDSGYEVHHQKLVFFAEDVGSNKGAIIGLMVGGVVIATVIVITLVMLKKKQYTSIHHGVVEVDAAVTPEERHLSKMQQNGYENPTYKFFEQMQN

In the case of `CC[C@H](C)[C@H](NC(=O)[C@@H]1CC2CCCCC2N1C(=O)[C@@H](N)C(C)C)C(=O)N[C@@H](C)C(=O)O` (some centres undefined) (H-V[Oic(3aξ,7aξ)]IA-OH), the viability at 1 µM (PC-12 [1]) is reported as 92.3%, the inhibition [2] is reported as “Active” and the inhibition [3] is reported as 61.2%. The viability at 4 µM (PC-12 [4]) was 100%, the Stabilty [5] was “Unstable” and the viability at 0.5 µM (PC-12 [6]) was 80.5%. The Activity [7] was “Active”, the Activity [8] was “Active” and the Activity [9] was 14.2%. The viability at 0.1 µM (PC-12 [10]) was 84.9%, the inhibition [11] was “Active” and the RFU [12] was 53.3%. The Activity [13] was “Tde”, the RFU [14] was 53% and the inhibition [15] was 68%. The inhibition [16] was 100%, the Activity [17] was “Active” and the inhibition [18] was “Active”. The viability at 10 µM (PC-12 [19]) was 100%, the RFU [20] was 53.2% and the Peff [21] was “Permeable”. The inhibition [22] was 100%, the Activity (Cortical neurone [23]) was “Active” and the Activity (Cortical neurone [24]) was “Non-Toxic”. The Activity (PC-12 [25]) was “Non-Toxic”, the inhibition [26] was “Active” and the Activity [27] was 60%. For the same compound, the Activity [28] was “Active”, the inhibition [29] was 74.8% and the inhibition [30] was 100%. For the same compound, the remaining at 12 h, 5 µM [31] was 90%, the Activity [32] was “Active” and the viability at 2 µM (PC-12 [33]) was 100%.

With `CC[C@H](C)[C@H](NC(=O)[C@@H](NC(=O)[C@@H](N)Cc1ccc(F)cc1)C(C)C)C(=O)N[C@@H](C)C(=O)O` (H-[Phe(4-F)]VIA-OH) the viability at 1 µM (PC-12 [1]) was 97.2%, the inhibition [2] was “Active” and the inhibition [3] was 79.9%. The viability at 4 µM (PC-12 [4]) was 100%, the Stabilty [5] was “Unstable” and the viability at 0.5 µM (PC-12 [6]) was 83.1%. The Activity [7] was “Active”, the Activity [8] was “Active” and the inhibition [34] was 42.5%. It also gave an Activity [9] of 13.6%, a viability at 0.1 µM (PC-12 [10]) of 79.3% and an inhibition [35] of 61%. The inhibition [11] was “Active”, the RFU [12] was 54.5% and the Activity [13] was “Tde”. The RFU [14] was 53.1%, the inhibition [15] was 81% and the inhibition [16] was 100%. For the same compound, the Activity [17] was “Active”, the Activity [36] was “Active” and the inhibition [18] was “Active”. The viability at 10 µM (PC-12 [19]) was 100%, the RFU [20] was 57.2% and the Peff [21] was “Permeable”. For the same compound, the inhibition [22] was 91.7%, the Activity (Cortical neurone [23]) was “Active” and the Activity (Cortical neurone [24]) was “Non-Toxic”. For the same compound, the Activity (PC-12 [25]) was “Non-Toxic”, the inhibition [26] was “Active” and the Activity [27] was 97.6%. For the same compound, the Activity [37] was “Active”, the inhibition [29] was 83.1% and the inhibition [30] was 97.5%. For the same compound, the remaining at 12 h, 5 µM [31] was 90%, the viability at 2 µM (PC-12 [33]) was 100% and the inhibition [38] was 32.1%.
